Source: patent publication US4636569A, “Pharmaceutical compositions containing compounds with a flavanone skeleton, process for the preparation of the said compound and novel compounds obtained” (Inverni Della Beffa S.p.A., priority 1983, dated 1987)
Counter-ions that a name gives are not always drawn.

Assays:
[1] = system: olive oil induced hyperlipaemia; assay: Hypolipaemic activity in rats (olive oil induced hyperlipaemia); assay type: in vivo; conditions: for Triglycerides / NEFA: n=6, m ± ES; for Triglycerides: controls 252 ± 18; for NEFA: controls 1017 ± 39
Description: The hypolipaemia-producing activity was evaluated in other tests in which the variations in cholesterol, triglycerides, NEFA (non-esterified fatty acids) and various lipoprotein fractions were determined.
In Table 3 there is reported the effect of 6,8-dimethyl-5,7,4'-trihydroxyflavanone and of nicotinic acid in combatting olive oil induced hyperlipaemia in rats fasted for 16 hours. The substances under test were administered orally two hours before the lipid load and the hyperlipaemia was induced by administering orally 20 ml/kg of olive oil.
Sacrifice took place three hours after the administration of the oil.

[2] = system: colouring matter excreted in the bronchial liquid; assay: Expectorant activity in mice (Nawatarih fluorescein method); assay type: in vivo; conditions: for ED50: Mus musculus, mice, oral, read-out: ED50 (dose capable of incrementing the excretion of the colouring matter by 50%)
Description: The expectorant activity of the compounds of the invention was evaluated by the method of Nawatarih (Kagoshima Daigaku Igaku Zasshi 27, 561, 1976) with fluorescein, according to which the increment of colouring matter excreted in the bronchial liquid is determined experimentally in mice. In the experiments the activity of 6,8-dimethyl-5,7,3',4'-tetrahydroxyflavanone was evaluated in comparison with that of bromhexine hydrochloride as reference standard. The results, given in Table 1, are expressed in ED50 (dose capable of incrementing the excretion of the colouring matter by 50%).

[3] = Acute toxicity in mice (oral route); assay type: in vivo; conditions: mouse, in vivo
Description: (§1) ACUTE TOXICITY (LD50 in mice (oral route)

[4] = system: bile flow and excretion of cholate; assay: Choleretic activity in rats; assay type: in vivo; conditions: dose 200 (unit not given); for Bile flow: n=10, controls 2.72 ± 0.11, ** P < 0.01, *** P < 0.001; for Total cholate: n=10, controls 11.64 ± 0.19, ** P < 0.01
Description: The choleretic activity, compared to that of catechol, has been determined in rats by measuring both the bile flow and the excretion of cholate (cholic acid).

[5] = system: mice; assay: Acute toxicity in mice (oral route); assay type: in vivo; conditions: no deaths occurred at a dose rate of 3000 mg/kg
Description: as §1

[6] = system: amount of expectoration; assay: Expectorant activity in the rabbit (Perry and Boyd method); assay type: in vivo; conditions: Oryctolagus cuniculus, po
Description: The expectorant activity has also been monitored by the Perry and Boyd method (J. Pharmacol. Exp. Ther. 7 580, 1941), in which the direct amount of expectoration is determined in the rabbit.

[7] = known flavanones of extractive origin; cited from earlier work

Compound: O=C(O)c1cccnc1 [Nicotinic acid, nicotinic acid]
- Triglycerides ([1]; 173 mg/kg os): 71 ± 6 mg/100 ml
- NEFA ([1]; 173 mg/kg os): 709 ± 33 uEq/1
- NEFA, change (in parentheses) ([1]; 173 mg/kg os, vs controls): -30
- Triglycerides, change (in parentheses) ([1]; 173 mg/kg os, vs controls): -72

Compound: CN(Cc1cc(Br)cc(Br)c1N)C1CCCCC1 [Bromhexine HCl, bromhexine hydrochloride]
- ED50 [2]: 51 mg/kg
- LD50 [3]: 2140 mg/kg

Compound: Oc1ccccc1O [(+) Catechol, catechol]
- Bile flow [4]: 4.13 ± 0.4 ml/4 h
- Total cholate [4]: 13.03 ± 0.35 mg/4 h

Compound: Cc1c(O)c(C)c2c(c1O)C(=O)CC(c1ccc(O)c(O)c1)O2 (stereo not shown) [6,8-dimethyl-5,7,3',4'-tetrahydroxyflavanone]
- ED50 [2]: 78 mg/kg
- therapeutic index ([2]; vs bromhexine, from ED50 and acute oral toxicity in mice): distinctly more favourable than that of bromhexine
- LD0 [5]: 3000 mg/kg
- ED50 [6]: 200 mg/kg

Compound: Cc1c(O)c(C)c2c(c1O)C(=O)C[C@@H](c1ccc(O)cc1)O2 [farrerol]
- expectorant and mucolytic activity [7]: display expectorant and mucolytic activity

Compound: O=C1C[C@@H](c2ccc(O)c(O)c2)Oc2cc(O)cc(O)c21 [eriodictyol]
- expectorant and mucolytic activity [7]: display expectorant and mucolytic activity

Compound: Cc1c(O)c(C)c2c(c1O)C(=O)CC(c1ccc(O)cc1)O2 (stereo not shown) [6,8-Dimethyl-5,7,4'-trihydroxyflavanone, 6,8-dimethyl-5,7,4'-trihydroxyflavanone]
- Triglycerides ([1]; 50 mg/kg os): 198 ± 7 mg/100 ml
- NEFA ([1]; 50 mg/kg os): 702 ± 23 uEq/1
- NEFA, change (in parentheses) ([1]; 50 mg/kg os, vs controls): -31
- Bile flow [4]: 5.25 ± 0.18 ml/4 h
- Total cholate [4]: 15.23 ± 0.97 mg/4 h
